Assays:
Sprague-Dawley rats = test: Subcutaneous injection toxicity and irritation (Draize evaluation scores); assay type: in vivo, rat; settings: 0.5 mL of 0.25 M CSAA subcutaneously, 1 to 3 daily injections
Experimental: Thirty 11-week old Sprague-Dawley rats were separated into 6 groups of 5 rats each (3 saline control groups and 3 CSAA groups). The rats were injected subcutaneously with 0.5 mL of either endotoxin-free phosphate-buffered saline or endotoxin-free 0.25 M CSAA according to the following schedule: One group from each condition was injected once on day 1 and then sacrificed […]; one group from each condition was injected once on day 1 and once on day 2 and then sacrificed 24 hours after the second injection; and one group from each condition was injected once on day 1, once on day 2, and once on day 3, and then sacrificed 24 hours after the third injection.
Clinical observations were recorded for any pharmaco-toxicological signs pre-dose, immediately post-dose, at 1 and 4 hours (±15 minutes) post-dose, and daily thereafter. Irritation, if any, at injection sites was scored using the Draize evaluation scores pre-dose, immediately post-dose, at 1 hour (±15 minutes) post dose, and prior to sacrifice.

biosimilar AVASTIN® = test: Viscosity of aqueous solutions of biosimilar AVASTIN® with viscosity-lowering agents; assay type: physicochemical
biosimilar RITUXAN® = test: Viscosity of aqueous solutions of biosimilar RITUXAN® with viscosity-lowering agents; settings: 202 ± 2 mg/mL RITUXAN; 0.25M agent; 25° C., pH 7.0;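 also: absolute viscosity of aqueous antibody solutions determined by microfluidic viscometry (mVROC chip, 50 micron channel) at several flow rates after 5 min equilibration, mean of at least three readings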
Experimental: All viscosities of well-mixed aqueous mAb solutions were measured using either a mVROC microfluidic viscometer (RheoSense) or a DV2T cone and plate viscometer (Brookfield; “C & P”) after a 5 minute equilibration at 25° C. […] The mVROC viscometer was equipped with an “A” or “B” chip, each manufactured with a 50 micron channel. Typically, 0.10 mL of protein solution was back-loaded into a gastight microlab instrument syringe (Hamilton; 100 μL), affixed to the chip, and measured at multiple flow rates, approximately 20%, 40%, and 60% of the maximum pressure for each chip. […] An average absolute viscosity and standard deviation was then calculated from at least these three measurements. The C & P viscometer was equipped with a CPE40 or CPE52 spindle (cone angle of 0.8° and 3.0°, respectively) and 0.50 mL samples were measured at multiple shear rates between 2 and 400 s^−1. […] An extrapolated zero-shear viscosity was then determined from a plot of dynamic viscosity versus shear rate for the samples measured on a DV2T cone and plate viscometer. The extrapolated zero-shear viscosities reported are the average and standard deviation of at least three measurements.
(§3) Viscosities were measured using a RheoSense mVROC microfluidic viscometer equipped with an “A” or “B” chip.

REMICADE® [1] = test: Viscosity of aqueous solutions of […]® with viscosity-lowering agents; assay type: physicochemical
biosimilar ERBITUX® = test: Viscosity of aqueous solutions of biosimilar ERBITUX® with viscosity-lowering agents; settings: for Viscosity / Fold Reduction: pH 7.0, 0.25M agent; for Fold Reduction: vs phosphate buffer
Experimental: All viscosities of well-mixed aqueous mAb solutions were measured using either a mVROC microfluidic viscometer (RheoSense) or a DV2T cone and plate viscometer (Brookfield; “C & P”) after a 5 minute equilibration at 25° C. (unless otherwise indicated). The mVROC viscometer was equipped with an “A” or “B” chip, each manufactured with a 50 micron channel. Typically, 0.10 mL of protein solution was back-loaded into a gastight microlab instrument syringe (Hamilton; 100 μL), affixed to the chip, and measured at multiple flow rates, approximately 20%, 40%, and 60% of the maximum pressure for each chip. […] An average absolute viscosity and standard deviation was then calculated from at least these three measurements. The C & P viscometer was equipped with a CPE40 or CPE52 spindle (cone angle of 0.8° and 3.0°, respectively) and 0.50 mL samples were measured at multiple shear rates between 2 and 400 s^−1. […] An extrapolated zero-shear viscosity was then determined from a plot of dynamic viscosity versus shear rate for the samples measured on a DV2T cone and plate viscometer. The extrapolated zero-shear viscosities reported are the average and standard deviation of at least three measurements.
First, Polysorbate 80 was removed using DETERGENT-OUT® TWEEN® Medi Columns (G-Biosciences). […] The collected protein solution was freeze-dried. The dried protein cakes, containing protein and buffer salts or agent, were reconstituted to a final volume of 0.15-1.3 mL. […] Reported protein concentrations represent the range of all protein samples included in each Table or Figure. Specifically, reported values are the median plus or minus half the range. Extrapolated zero-shear using an experimentally determined extinction coefficient of 1.4 L/g·cm and viscosities reported were measured on a DV2T cone and plate viscometer.
The final concentration of CSAL upon reconstitution in an aqueous CSAL solution ranged from 0.25 M to 0.50 M.
Specifically, 20 mM solutions of the viscosity-lowering agents of interest were used for buffer exchange, and the lyophilized cakes were reconstituted to 0.25 M of each viscosity-lowering agent. […] The sample was first aliquoted. […] The dried protein cakes, containing protein and viscosity-lowering agent (and a negligible amount of buffer salts) were reconstituted to a final volume of approximately 0.10 mL and viscosity-lowering agent concentration as previously described.
First, Polysorbate was removed from the commercially obtained mAb solutions.
Specifically, 20 mM solutions of the salts of interest were used for buffer exchange, and the lyophilized cakes were reconstituted to contain 0.25 M of each agent. Viscosities were measured using either a RheoSense mVROC microfluidic viscometer equipped with an “A” or “B” chip or a DV2T cone and plate viscometer.
(§4) Subsequently, the aqueous drug product was purified, buffer exchanged, concentrated, dried, reconstituted, and analyzed as described in the same manner. Viscosities reported were measured on a RheoSense mVROC microfluidic viscometer.

ARZERRA® = test: Viscosity of aqueous solutions of ARZERRA® with viscosity-lowering agents; assay type: physicochemical; settings: 274 ± 10 mg/mL ARZERRA; 0.25M agent; 25° C., pH 7.0
Description: (§1) (unless otherwise indicated).

VECTIBIX® = test: Viscosity of aqueous solutions of VECTIBIX® with viscosity-lowering agents; assay type: physicochemical; settings: 0.25M agent, 25° C., pH 7.0
Description: as §1

REMICADE® [2] = test: Monomer content of […]® solutions by size exclusion chromatography; assay type: physicochemical; settings: storage at room temperature, CSAA sample: REMICADE 219 mg/mL, pH 7, 0.25M CSAA
REMICADE® [3] = test: as above; assay type: physicochemical; settings: 0.25M agent
Experimental: Biophysical properties of solutions of […]® formulated with 0.25 M CSAA were assessed over 90 days. Samples of […]® formulated with 0.25 M CSAA were prepared as described in Example 1 above.
(§2) Following reconstitution, the viscosity of each solution was measured using the microfluidic viscometer as described in previous examples. The solutions were then back-loaded into 1 mL BD insulin syringes with 27, 29, or 31 gauge fixed needles. The force required to extrude the concentrated […]® solutions was then measured using an Instron at a rate of displacement equivalent to a fluid flow rate of 3 mL/min. The expelled solution was collected from the syringe and analyzed by size-exclusion chromatography.

TYSABRI® = test: Viscosity of aqueous solutions of TYSABRI® with viscosity-lowering agents; assay type: physicochemical; settings: 0.25M agent, 25° C., pH 7.0
Experimental: All viscosities of well-mixed aqueous mAb solutions were measured using either a mVROC microfluidic viscometer (RheoSense) or a DV2T cone and plate viscometer (Brookfield; “C & P”) after a 5 minute equilibration at 25° C. […] The mVROC viscometer was equipped with an “A” or “B” chip, each manufactured with a 50 micron channel. Typically, 0.10 mL of protein solution was back-loaded into a gastight microlab instrument syringe (Hamilton; 100 μL), affixed to the chip, and measured at multiple flow rates, approximately 20%, 40%, and 60% of the maximum pressure for each chip. […] An average absolute viscosity and standard deviation was then calculated from at least these three measurements. The C & P viscometer was equipped with a CPE40 or CPE52 spindle (cone angle of 0.8° and 3.0°, respectively) and 0.50 mL samples were measured at multiple shear rates between 2 and 400 s^−1. Specifically, samples were measured for 30 seconds each at 22.58, 24.38, 26.25, 28.13, 30, 31.88, 45, 67.5, 90, 112.5, 135, 157.5, 180, 202.5, 247, 270, 292.5, 315, 337.5, 360, 382, 400 s^−1, starting at a shear rate that gave at least 10% torque, and continuing until instrument torque reached 100%. An extrapolated zero-shear viscosity was then determined from a plot of dynamic viscosity versus shear rate for the samples measured on a DV2T cone and plate viscometer. The extrapolated zero-shear viscosities reported are the average and standard deviation of at least three measurements.
as §3, §4

HERCEPTIN® = test: Viscosity of aqueous solutions of HERCEPTIN® with viscosity-lowering agents; assay type: physicochemical; settings: 0.25M salt, 25° C., pH 7.0
Experimental: All viscosities of well-mixed aqueous mAb solutions were measured using either a mVROC microfluidic viscometer (RheoSense) or a DV2T cone and plate viscometer (Brookfield; “C & P”) after a 5 minute equilibration at 25° C. (unless otherwise indicated). The mVROC viscometer was equipped with an “A” or “B” chip, each manufactured with a 50 micron channel. Typically, 0.10 mL of protein solution was back-loaded into a gastight microlab instrument syringe (Hamilton; 100 μL), affixed to the chip, and measured at multiple flow rates, approximately 20%, 40%, and 60% of the maximum pressure for each chip. […] An average absolute viscosity and standard deviation was then calculated from at least these three measurements. The C & P viscometer was equipped with a CPE40 or CPE52 spindle (cone angle of 0.8° and 3.0°, respectively) and 0.50 mL samples were measured at multiple shear rates between 2 and 400 s^−1. Specifically, samples were measured for 30 seconds each at 22.58, 24.38, 26.25, 28.13, 30, 31.88, 45, 67.5, 90, 112.5, 135, 157.5, 180, 202.5, 247, 270, 292.5, 315, 337.5, 360, 382, 400 s^−1, starting at a shear rate that gave at least 10% torque, and continuing until instrument torque reached 100%. An extrapolated zero-shear viscosity was then determined from a plot of dynamic viscosity versus shear rate for the samples measured on a DV2T cone and plate viscometer. The extrapolated zero-shear viscosities reported are the average and standard deviation of at least three measurements.
as §3
Viscosities reported were measured on a RheoSense mVROC microfluidic viscometer.

REMICADE® [4] = test: Syringe extrusion force of concentrated […]® solutions (Instron); assay type: physicochemical; settings: 1 mL BD insulin syringe, 3 mL/min, REMICADE 224-230 mg/mL, 0.25M agent
Experimental: as §2

antigen = test: Antigen binding, […]®-specific ELISA assay; settings: storage at room temperature, CSAA sample: REMICADE 219 mg/mL, pH 7, 0.25M CSAA
Experimental: Biophysical properties of solutions of […]® formulated with 0.25 M CSAA were assessed over 90 days. Samples of […]® formulated with 0.25 M CSAA were prepared as described in Example 1 above. […] (Table 20). Additionally, antigen binding of this processed […]® protein was measured with a […]®-specific ELISA assay and no decrease in binding was seen between days 0 and […] (Table 20).

camphorsulfonic acid arginine [CSAA] was tested, and the “Microscopic examination of injection sites” value (Sprague-Dawley rats; no longer evident by day 4) was “very minor, clinically insignificant, irritative effect”, the “Observed consequences of the injections compared with saline” value (Sprague-Dawley rats; throughout the study) was “macroscopically similar” and the “Edema scores (Draize) at injection sites” value (Sprague-Dawley rats; various time points) was 0-2. The Viscosity (biosimilar AVASTIN®; 200 ± 5 mg/mL mAb, pH 7.0, 25° C., [Salt] 0.25 M of anion, C & P viscometer) was 48.5 ± 1.9 cP, the “pH of minimum viscosity and maximum viscosity-lowering effect” value (biosimilar AVASTIN®; 200±9 mg/mL mAb, 0.25 M CSAA, FIG. 3) was ~7 and the Viscosity (biosimilar AVASTIN®; 228 ± 5 mg/mL mAb, agent 0.25 M, 25° C., pH 7.0) was 116 ± 2 cP. For the same substance, the Viscosity (biosimilar RITUXAN®) was 78.4 ± 0.3, the Viscosity (REMICADE® [1]; 128 mg/mL REMICADE, isotonic (0.3 molal) excipient) was 25.8 ± 0.8 cP and the Viscosity reduction (REMICADE® [1]; 0.25M agent vs PB, Table 17) was “about 29 fold”. For the same substance, the Viscosity (REMICADE® [1]; 166 ± 4 mg/mL REMICADE, 0.25M agent, 25° C., pH 7.0) was 19.1 ± 0.2 cP, the Viscosity (REMICADE® [1]; 215 ± 5 mg/mL REMICADE, [CSAA] 0 M, 25° C., pH 7.0) was 1557 ± 22 cP and the Viscosity (REMICADE® [1]; 215 ± 5 mg/mL REMICADE, [CSAA] 0.20 M, 25° C., pH 7.0) was 81.3 ± 1.0 cP. The Viscosity (REMICADE® [1]; 215 ± 5 mg/mL REMICADE, [CSAA] 0.25 M, 25° C., pH 7.0) was 53.7 ± 9.3 cP, the Viscosity (REMICADE® [1]; 215 ± 5 mg/mL REMICADE, [CSAA] 0.35 M, 25° C., pH 7.0) was 38.2 ± 0.9 cP and the Viscosity (REMICADE® [1]; 222 ± 6 mg/mL REMICADE, 0.25M agent, 25° C., pH 7.0) was 53.7 ± 9.3 cP. The “pH of viscosity minimum” value (biosimilar ERBITUX®; 0.25 M CSAA, 202±5, 229±5, 253±4 mg/mL mAb, 25° C., FIG. 5) was ~7.0, the Viscosity (biosimilar ERBITUX®; 222 ± 5 mg/mL mAb, 25° C.) was 52.5 ± 1.0 cP and the Viscosity (biosimilar ERBITUX®; 225 ± 5 mg/mL mAb, 20° C.) was 79.6 ± 0.9 cP. For the same substance, the Viscosity (biosimilar ERBITUX®; 225 ± 5 mg/mL mAb, 25° C.) was 58.0 ± 0.3 cP, the Viscosity (biosimilar ERBITUX®; 225 ± 5 mg/mL mAb, 30° C.) was 46.9 ± 0.6 cP and the “Fold Reduction” value (biosimilar ERBITUX®; 222 ± 5 mg/mL mAb, 25° C.) was 21.5 fold. The “Fold Reduction” value (biosimilar ERBITUX®; 222 ± 5 mg/mL mAb, 25° C., listed as CSA Arginine) was 21.5 fold, the Viscosity (ARZERRA®) was 125 ± 7 cP and the Viscosity (VECTIBIX®; 264 mg/mL VECTIBIX) was 44.3 ± 2.3 cP. For the same substance, the Viscosity (VECTIBIX®; 233 ± 4 mg/mL VECTIBIX) was 26.2 ± 6.5 cP, the Viscosity (VECTIBIX®; 252 ± 3 mg/mL VECTIBIX) was 27.4 ± 1.2 cP and the Viscosity (VECTIBIX®; 291 ± 3 mg/mL VECTIBIX) was 162 ± 1 cP. For the same substance, the “% Monomer” value (REMICADE® [2]; day 0) was 99.9 ± 0.1%, the “% Monomer” value (REMICADE® [2]; day 4) was 97.9 ± 0% and the “% Monomer” value (REMICADE® [2]; day 7) was 100 ± 0%. For the same substance, the “% Monomer” value (REMICADE® [3]; expelled through 27 gauge needle, REMICADE 224-230 mg/mL (per agent)) was 99.5 ± 0.1%, the “% Monomer” value (REMICADE® [3]; expelled through 29 gauge needle, REMICADE 224-230 mg/mL (per agent)) was 99.4 ± 0.2% and the “% Monomer” value (REMICADE® [3]; expelled through 31 gauge needle, REMICADE 224-230 mg/mL (per agent)) was 99.5 ± 0.2%. For the same substance, the “% Monomer” value (REMICADE® [3]; pre-syringe, REMICADE 220-230 mg/mL (per agent)) was 99.7 ± 0.3%, the Viscosity (TYSABRI®; 237 ± 4 mg/mL TYSABRI) was 47.1 ± 2.1 cP and the Viscosity (TYSABRI®; 276 ± 8 mg/mL TYSABRI) was 92.9 ± 2.6 cP. For the same substance, the Viscosity (HERCEPTIN®; 216 ± 0 mg/mL HERCEPTIN) was 55.7 ± 2.3 cP, the Viscosity (HERCEPTIN®; 254 ± 3 mg/mL HERCEPTIN) was 78.0 ± 8.7 cP and the Viscosity (HERCEPTIN®; 270 ± 6 mg/mL HERCEPTIN) was 96.7 ± 4.7 cP. For the same substance, the “Syringe Force” value (REMICADE® [4]; 27 gauge needle) was 18.4 N, the “Syringe Force” value (REMICADE® [4]; 29 gauge needle) was 24.9 N and the “Syringe Force” value (REMICADE® [4]; 31 gauge needle) was 33.0 N. The “% binding (normalized to drug product)” value (antigen; day 0) was 88.6 ± 5.2% and the “% binding (normalized to drug product)” value (antigen; day 7) was 114 ± 2.4%.

Source: US9925263B2, “Liquid pharmaceutical formulations for injection comprising procaine and uses thereof” (EAGLE BIOLOGICS, INC., priority 2013, dated 2018)
